Measured values from US11253497B2, “Use of derivatives of polyunsaturated fatty acids as medicaments” (Lipopharma Therapeutics, S.L., priority 2009, dated 2022).

Tests used:
P19 cells = test: NMDA-induced neuronal death in P19 cells; assay type: cell-based; conditions: NMDA alone 100% death, control without NMDA 0%; negative values = proliferation
α-synuclein = test: Expression of α-synuclein in neuronal cultures (cells P19); assay type: cell-based; conditions: untreated cells 100%
HepG2 cells = test: Liver cancer (HepG2 cells); assay type: cell-based; conditions: Homo sapiens, HepG2; 72 hours
Protocol: These charts show the antitumor efficacy of the compounds of this invention against the growth of breast cancer cells, brain (glioma), and lung cancer. […] The other experimental conditions are identical to those described in the preceding paragraph.
(§1) Overall, it may be seen that the series of compounds A and B are the best, so the effectiveness of these series against the development of leukaemia and liver cancer (Tables 9 and 10) was tested.

3T3 cells = test: Percentage of total PUFAs in membranes of 3T3 cells treated with fatty acids (gas chromatography); assay type: cell-based; conditions: 100 μM, 48 hours, mean ± SEM of four measures, control 32.4 ± 2.1
From the text: To perform these experiments, membranes were extracted and total fatty acids were obtained by hydrolysis in basic medium. Methanolic bases of these fatty acids were quantified by gas chromatography. The data shown are averages of four independent measures of PUFA's mass divided by the total fatty acids and expressed as a percentage. It is also shown is standard error of the mean.
The control corresponds to a culture without the presence of added natural or synthetic fatty acids. Cells in their natural form present PUFAs in their membranes, but the presence in the medium of the D-PUFA molecules of the invention increases these levels of PUFAs in the cell membrane.

lung cancer cells A549 = test: Growth of lung cancer cells A549 (IC50); assay type: cell-based, human; conditions: 72 hours of incubation
Outline: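 Cell counts taken with compound, mean of three independent experiments. Applies to A549 (RPMI 1640, 10% FBS, 37 °C, 5% CO2).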

TNF-α = test: Production of TNF-α in serum of LPS-injected C57BL6/J mice; assay type: in vivo; conditions: LPS 20 μg i.p. (100%), 200 mg/kg p.o.
From the text: (§2) Cyclooxygenase (COX) is an enzyme that can bind to membranes, taking certain lipids from there and catalyze its conversion into molecules that can have inflammatory activity. The binding of this enzyme to membrane lipids is due in part to the membrane lipid structure. The increased activity of COX 1 and 2 isoforms has been associated with the etiopathology of a number of inflammatory diseases by […] arachidonic acid metabolism to produce pro-inflammatory lipid mediators. The D-PUFA compounds of the present invention produced a series of cellular signals that alter the metabolism of arachidonic acid and, as a result, they inhibit the activity and expression of COX in monocytes in culture (Table 14 and FIG. 5A). […] For this purpose, C57BL6/J mice were treated with the various derivatives (200 mg/kg, p.o.,) after inducing an inflammatory reaction in them by intraperitoneal injection of 20 μg of bacterial lipopolysaccharide (LPS).

[1] = Lamellar-to-hexagonal (HII) transition temperature in DEPE model membranes by Differential Scanning Calorimetry; assay type: physicochemical
Protocol: The transition temperature was determined by Differential Scanning Calorimetry. The proportion DEPE:D-PUFA was 10:1 (mol:mol) in all cases. Lamellar-to-hexagonal transition is an important parameter that reflects relevant signalling properties of cell membranes. […] When this occurs, certain peripheral membrane proteins (such as G proteins, protein kinase C or Ras protein) can more easily bind to the membrane, while others have a poor interaction (e.g., the Gα-protein), so changes in the HII transition temperature are important in regulating cellular functions related to health and human therapy (Escriba et al., 1995, Vogler et al., 2004; Escriba, 2006).
Control values correspond to model membranes in the absence of fatty acids. The reduction in HII transition temperature obtained by using the D-PUFA of the invention indicates an increased induction of membrane discontinuities, generating anchoring sites in the membrane for peripheral proteins and leads to better regulation of cell signalling and, therefore, greater effectiveness in the control of certain diseases.

[2] = system: apolipoprotein AI (apoA-I); test: Levels of apoA-I in SHR rats (RT-PCR); assay type: in vivo, rat; conditions: 200 mg/kg day p.o., 30 days, before treatment 100%
Outline: (§3)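 SHR rats dosed orally at 200 mg/kg day for 30 days against water vehicle. At study end, blood pressure taken non-invasively by tail cuff and apoA-I assessed as gene expression by RT-PCR.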

[3] = system: breast cancer cells MDA-MB-231; test: Growth of breast cancer cells MDA-MB-231; assay type: cell-based; conditions: 72 hours of incubation
Outline: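 Cell counts taken with compound, mean of three independent experiments. Applies to MDA-MB-231.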

Jurkat cells = test: Human leukaemia (Jurkat cells); assay type: cell-based; conditions: 72 hours
Protocol: as §1

[4] = Serum cholesterol, triglycerides and glucose in SHR rats (colorimetric); assay type: in vivo, rat; conditions: 200 mg/kg daily p.o., 28 days, untreated rats 100%
Outline: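 SHR rats dosed p.o. at 200 mg/kg daily for 28 days; serum cholesterol, triglycerides and glucose measured colorimetrically. Values given as percent of untreated control rats, set at 100%.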

[5] = system: heterotrimeric Gi1 protein; test: Binding of heterotrimeric Gi1 protein to model membranes (centrifugation, immunoblotting); conditions: phosphatidylcholine:phosphatidylethanolamine (6:4) 2 mM phospholipid, 0.1 μM D-PUFA; control 100 ± 5; in % (unit assumed)
From the text: The net result is a regulation of cell signalling leading to the reversal of various pathological processes, as shown later. […] The Control is a sample of model membranes in the absence of fatty acids.

[6] = system: Spontaneously Hypertensive Rats (SHR); test: Blood pressure of SHR rats (cuff-tail method); assay type: in vivo, rat; conditions: 200 mg/kg day p.o., 30 days, before treatment 214 mmHg
Outline: as §3

COX-2 = test: Expression of COX-2 in LPS-stimulated monocytes in culture; assay type: cell-based, human; conditions: positive control with LPS 100%
From the text: FIG. 5A also presents a drawing showing the COX-2/COX-1 relationship as % of control (Y axis) for the following compounds (X-axis): OOA (2-hydroxy-oleic acid), OLA (182A1), OALA (183A1), OGLA (183A2), OARA (204A1), OEPA (205A1), ODHA (226A1). […] The reduction of this factor is directly related to the anti-inflammatory medication. The compounds are the same as in the left pane.
as §2
Inhibition of COX-2 expression in monocytes. Percentages of inhibition (compared to the positive control in the presence of LPS, 100%) of COX-2 protein levels (expression) by the various fatty acid derivatives.

[7] = system: brain cancer cell (glioma) U118; test: Brain cancer (glioma) U118 cell growth; assay type: cell-based; conditions: 72 hours of incubation
Outline: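 Cell counts taken with compound, mean of three independent experiments. Applies to U118.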

B6 healthy mice = test: Radial maze in control animals (B6 healthy mice); assay type: in vivo; conditions: 20 mg/kg daily po, 3 months
Protocol: To test the efficacy of the compounds of the present invention to induce neuroregeneration or inhibit neurodegeneration, an animal model of Alzheimer's disease was used. In this model mice develop neurodegeneration because they express a series of mutant proteins that lead to brain damage (Alzh mice). B6 mice were used as healthy animal controls. Both groups of animals were treated for a period of 3 months with vehicle (water) or with various D-PUFA (20 mg/kg, daily po) since they were an age of 3 months. To determine whether cognitive improvement occurred after treatment, animal behaviour was monitored in the radial maze. The animals are kept on restricted diet to have appetite. In a symmetrical 8-arm radial maze, visual marks were placed to facilitate the orientation of the animal and food (15 mg tablet) was put in four of the arms. The time each animal took to complete the exercise, and the number of errors, were measured using a camera attached to a computer system. In this sense, Alzheimer animals have values about 50% higher than healthy animals, both by the time it takes to perform the exercise and by the number of errors made (FIG. 4B). […] In this regard, the effectiveness of the compound 183B1, 205A1, 205B1, 226A1, 226 V1 was also tested, showing improvements in animals with Alzheimer's disease (times of 98, 92, 93, 86 and 89 seconds, respectively). On the other hand, it is also interesting that these same compounds (183B1, 205A1, 205B1, 226A1, 226B1 and 226V1) also produced reductions in the times taken to complete the experiment in control animals (B6 healthy mice) of 8s, 11s, 12s, 18s, 16s and 14s, respectively. Therefore, it may be concluded that these compounds have significant activity against neurodegeneration and in neuroregeneration.

## CCCCCC=CCC=CCC=CCC=CCCC(O)C(=O)O (centres unmarked) [204A1, 2-hydroxy-5,8,11,14-eicosatetraenoic acid]
P19 cells
  Neuronal death (P19 cells) after treatment with NMDA: −70%
α-synuclein
  Expression of α-synuclein: 41%
HepG2 cells
  IC50: 192 µM
3T3 cells
  Percentage of total PUFA: 45.5 ± 2.9%
Lung cancer cells A549; Homo sapiens, A549
  IC50: 243 µM
TNF-α
  Production of TNF-α in serum: 24%
[1]; DEPE (4 mM), 200 μM compound, series A, control 64.5
  Transition temperature (lamellar to HII): 49.3 °C
[2]
  Levels of apoA-I: 131%
[3]; Homo sapiens, MDA-MB-231
  IC50: 381 µM
Jurkat cells; Homo sapiens, Jurkat
  IC50: 62 µM
[4]
  Cholesterol in serum (top number): 72%
  Glucose in serum (bottom number): 85%
  Triglycerides in serum (central number): 77%
[5]
  G protein binding: 385 ± 22
[6]
  Blood pressure: 205 mm Hg
COX-2
  COX-2 protein levels (expression), percentages of inhibition compared to positive control: 17%
[7]
  IC50: 197 µM

## CC/C=C\C/C=C\C/C=C\C/C=C\C/C=C\C/C=C\CC(O)C(=O)[O-].[Na+] (centres unmarked) [226B1]
P19 cells
  Neuronal death (P19 cells) after treatment with NMDA: −222%
α-synuclein
  Expression of α-synuclein: 31%
B6 healthy mice
  Reduction in the time taken to complete the experiment: 16 s
Lung cancer cells A549
  IC50: 198 µM
TNF-α
  Production of TNF-α in serum: 83%
[1]; DEPE membranes, DEPE:D-PUFA 10:1 (mol:mol)
  Temperature of lamellar-to-hexagonal transition: 45.1 °C
[2]
  Levels of apoA-I: 333%
[3]
  IC50: 195 µM
Jurkat cells
  IC50: 175 µM
[4]
  Cholesterol in serum (top number): 59%
  Glucose in serum (bottom number): 81%
  Triglycerides in serum (central number): 62%
[6]
  Blood pressure: 186 mm Hg
COX-2
  COX-2 protein levels (expression), percentages of inhibition compared to positive control: 37%
[7]
  IC50: 196 µM
